Source: patent EP4509511A1, “SUBSTITUTED SPIRO-ISOXAZOLINYL LACTAMS, SALTS THEREOF AND THEIR USE AS HERBICIDALLY ACTIVE SUBSTANCES” (Bayer Aktiengesellschaft, priority 2023, dated 2025)

Key:
ABUTH [1] = assay: Herbicidal pre-emergence action - Part I; type: in vivo, Abutilon theophrasti; conditions: visual grading after ca. 3 weeks vs untreated controls
From the text: (§1) Seeds of mono- and dicotyledonous weed plants were sown in plastic pots (double sowings with one species of mono- and one species of dicotyledonous weed plants per pot), in sandy loam, and covered with soil. The compounds according to the invention, formulated in the form of wettable powders (WP) or as emulsifiable concentrates (EC), were applied to the surface of the covering soil as aqueous suspension or emulsion, with the addition of 0.5% of an additive, at an application rate of 600 1 of water per hectare (converted). Following treatment, the pots were placed in a greenhouse and kept under optimum growth conditions for the test plants. The visual grading of the damage to the test plants was carried out after ca. 3 weeks in comparison to untreated controls (herbicidaleffectinpercent(%):100%effect=plantshavediedoff,0%effect=ascontrolplants). [formula]
(§2) Tables A1 to A12, below, show the effects of selected compounds of the general formula (I) according to table 1 on various harmful plants and an application rate corresponding to 1280 g/ha or below obtained by the experimental procedure mentioned above. Table A1: pre-emergence activity at 1280g/ha against ABUTH in %

ECHCG [2] = assay: Herbicidal pre-emergence action - Part I; type: in vivo, Echinochloa crus-galli; conditions: 1280 g/ha, visual grading after ca. 3 weeks vs untreated controls
From the text: as §1, §2

MATIN [3] = assay: Herbicidal pre-emergence action - Part I; type: in vivo, Matricaria inodora; conditions: visual grading after ca. 3 weeks vs untreated controls
From the text: as §1, §2

SETVI [4] = assay: Herbicidal pre-emergence action - Part I; type: in vivo, Setaria viridis; conditions: 1280 g/ha, visual grading after ca. 3 weeks vs untreated controls
From the text: as §1, §2

STEME [5] = assay: Herbicidal pre-emergence action - Part I; type: in vivo, Stellaria media; conditions: visual grading after ca. 3 weeks vs untreated controls
From the text: as §1, §2

POAAN [6] = assay: Herbicidal pre-emergence action - Part I; type: in vivo, Poa annua; conditions: visual grading after ca. 3 weeks vs untreated controls
From the text: as §1, §2

AMARE [7] = assay: Herbicidal pre-emergence action - Part I; type: in vivo, Amaranthus retroflexus; conditions: visual grading after ca. 3 weeks vs untreated controls
From the text: as §1, §2

KCHSC [8] = assay: Herbicidal pre-emergence action - Part I; type: in vivo, Kochia scoparia; conditions: Table A10a, 1280 g/ha, visual grading after ca. 3 weeks vs untreated controls
From the text: as §1, §2

DIGSA = assay: Herbicidal pre-emergence action - Part I; type: in vivo, Digitaria sanguinalis; conditions: visual grading after ca. 3 weeks vs untreated controls
From the text: as §1, §2

ABUTH [9] = assay: Herbicidal post-emergence action - Part I; type: in vivo, Abutilon theophrasti; conditions: 320 g/ha, one-leaf stage, rated visually after about 3 weeks vs untreated controls
Method: (§3) Seeds of mono- and dicotyledonous weed plants were placed in plastic pots in sandy loam soil (doubly sown with in each case one species of mono- or dicotyledonous weed plants per pot), covered with soil and cultivated in a greenhouse under controlled growth conditions. 2 to 3 weeks after sowing, the test plants were treated at the one-leaf stage. The compounds of the invention, formulated in the form of wettable powders (WP) or as emulsion concentrates (EC), were applied onto the green parts of the plants as aqueous suspension or emulsion with addition of 0.5% additive at a water application rate of 600 liters per hectare (converted). After the test plants had been kept in the greenhouse under optimum growth conditions for about 3 weeks, the activity of the preparations was rated visually in comparison to untreated controls. For example, 100% activity = the plants have died, 0% activity = like control plants. Tables B1 to B12, below, show the effects of selected compounds of the general formula (I) according to table 1 on various harmful plants and an application rate corresponding to 1280 g/ha or below obtained by the experimental procedure mentioned above. Table B1a: post-emergence activity at 1280g/ha against ABUTH in %

ECHCG [10] = assay: Herbicidal post-emergence action - Part I; type: in vivo, Echinochloa crus-galli; conditions: one-leaf stage, rated visually after about 3 weeks vs untreated controls
Method: as §3

MATIN [11] = assay: Herbicidal post-emergence action - Part I; type: in vivo, Matricaria inodora; conditions: one-leaf stage, rated visually after about 3 weeks vs untreated controls
Method: as §3

STEME [12] = assay: Herbicidal post-emergence action - Part I; type: in vivo, Stellaria media; conditions: one-leaf stage, rated visually after about 3 weeks vs untreated controls
Method: as §3

POAAN [13] = assay: Herbicidal post-emergence action - Part I; type: in vivo, Poa annua; conditions: one-leaf stage, rated visually after about 3 weeks vs untreated controls
Method: as §3

AMARE [14] = assay: Herbicidal post-emergence action - Part I; type: in vivo, Amaranthus retroflexus; conditions: one-leaf stage, rated visually after about 3 weeks vs untreated controls
Method: as §3

KCHSC [15] = assay: Herbicidal post-emergence action - Part I; type: in vivo, Kochia scoparia; conditions: 1280 g/ha, one-leaf stage, rated visually after about 3 weeks vs untreated controls
Method: as §3

VERPE [16] = assay: Herbicidal post-emergence action - Part I; type: in vivo, Veronica persica; conditions: one-leaf stage, rated visually after about 3 weeks vs untreated controls
Method: as §3

ABUTH [17] = assay: Herbicidal post-emergence action - Part II; type: in vivo, Abutilon theophrasti
From the text: (§4) Seeds of mono- and dicotyledonous weed plants and crop plants were sown, in plastic or organic planting pots, in sandy loam, covered with soil and grown in a greenhouse under controlled growth conditions. 2 to 3 weeks after sowing, the test plants were sprayed in the single-leaf stage. The compounds according to the invention, formulated in form of wettable powders (WP) or as emulsifiable concentrates (EC), were sprayed onto the green plant parts as aqueous suspension or emulsion, with the addition of 0.5% of an additive, at an application rate of 600 1 of water/ha (converted). The test plants were placed in the greenhouse for ca. 3 weeks under optimum growth conditions, and then the effect of the preparations was assessed visually in comparison with untreated controls (herbicidal effect in percent (%): 100% effect = plants have died off, 0% effect = as control plants). Tables E1 to E10 below show the effects of selected compounds of the general formula (I) according to table 1 on various harmful plants and an application rate corresponding to 320 g/ha or below obtained by the experimental procedure mentioned above. Table E1a: post-emergence activity at 5g/ha against ABUTH in %

AMARE [18] = assay: Herbicidal post-emergence action - Part II; type: in vivo, Amaranthus retroflexus
From the text: as §4

PHBPU = assay: Herbicidal post-emergence action - Part II; type: in vivo, Pharbitis purpurea
From the text: as §4

POLCO = assay: Herbicidal post-emergence action - Part II; type: in vivo, Polygonum convolvulus; conditions: 20 g/ha; Table E6
From the text: as §4

VERPE [19] = assay: Herbicidal post-emergence action - Part II; type: in vivo, Veronica persica
From the text: as §4

VIOTR = assay: Herbicidal post-emergence action - Part II; type: in vivo, Viola tricolor
From the text: as §4

ZEAMX = assay: Post-emergence effects on crop plants; type: in vivo, Zea mays; conditions: crop plant
From the text: as §4, with “F1” for “E1”, “F5” for “E10”, “crop” for “harmful”, “[…]:” for “E1a:”, “ZEAMX” for “ABUTH”

TRZAS = assay: Post-emergence effects on crop plants; type: in vivo, Triticum aestivum; conditions: crop plant
From the text: as §4, with “F1” for “E1”, “F5” for “E10”, “crop” for “harmful”, “[…]:” for “E1a:”, “ZEAMX” for “ABUTH”

BRSNW = assay: Post-emergence effects on crop plants; type: in vivo, Brassica napus; conditions: 5 g/ha; Table F5a; crop plant
From the text: as §4, with “F1” for “E1”, “F5” for “E10”, “crop” for “harmful”, “[…]:” for “E1a:”, “ZEAMX” for “ABUTH”

ECHCG [20] = assay: Herbicidal post-emergence action - Part II; type: in vivo, Echinochloa crus-galli; conditions: 20 g/ha; Table E3a
From the text: as §4

MATIN [21] = assay: Herbicidal post-emergence action - Part II; type: in vivo, Matricaria inodora; conditions: 20 g/ha; Table E4b
From the text: as §4

SETVI [22] = assay: Herbicidal post-emergence action - Part II; type: in vivo, Setaria viridis
From the text: as §4

N#Cc1ncccc1C1=NOC2(CCN(Cc3cccc(F)c3F)C2=O)C1 (racemic) [Compound I-41]
pre-emergence activity at 1280g/ha against ABUTH in % (ABUTH [1]): 100%
pre-emergence activity at 1280g/ha against ECHCG in % (ECHCG [2]): 100%
pre-emergence activity at 320g/ha against MATIN in % (MATIN [3]; 320 g/ha): 90%
pre-emergence activity at 1280g/ha against MATIN in % (MATIN [3]; 1280 g/ha): 100%
pre-emergence activity at 1280g/ha and against SETVI in % (SETVI [4]): 100%
pre-emergence activity at 320g/ha against STEME in % (STEME [5]; 320 g/ha): 90%
pre-emergence activity at 1280g/ha against STEME in % (STEME [5]; 1280 g/ha): 90%
pre-emergence activity at 320g/ha and against POAAN in % (POAAN [6]; 320 g/ha): 100%
pre-emergence activity at 1280g/ha and against POAAN in % (POAAN [6]; 1280 g/ha): 100%
pre-emergence activity at 320g/ha against AMARE in % (AMARE [7]; 320 g/ha): 90%
pre-emergence activity at 1280g/ha against AMARE in % (AMARE [7]; 1280 g/ha): 90%
pre-emergence activity at 1280g/ha against KCHSC in % (KCHSC [8]): 90%
pre-emergence activity at 320g/ha against DIGSA in % (DIGSA; 320 g/ha): 90%
pre-emergence activity at 1280g/ha against DIGSA in % (DIGSA; 1280 g/ha): 100%
post-emergence activity at 320g/ha against ABUTH in % (ABUTH [9]): 100%
post-emergence activity at 320g/ha against ECHCG in % (ECHCG [10]; 320 g/ha): 90%
post-emergence activity at 1280g/ha against ECHCG in % (ECHCG [10]; 1280 g/ha): 100%
post-emergence activity at 320g/ha against MATIN in % (MATIN [11]; 320 g/ha): 100%
post-emergence activity at 1280g/ha against MATIN in % (MATIN [11]; 1280 g/ha): 100%
post-emergence activity at 80g/ha against STEME in % (STEME [12]; 80 g/ha): 100%
post-emergence activity at 320g/ha against STEME in % (STEME [12]; 320 g/ha): 100%
post-emergence activity at 1280g/ha against STEME in % (STEME [12]; 1280 g/ha): 100%
post-emergence activity at 80g/ha against POAAN in % (POAAN [13]; 80 g/ha): 90%
post-emergence activity at 320g/ha against POAAN in % (POAAN [13]; 320 g/ha): 90%
post-emergence activity at 1280g/ha against POAAN in % (POAAN [13]; 1280 g/ha): 90%
post-emergence activity at 80g/ha against AMARE in % (AMARE [14]; 80 g/ha): 90%
post-emergence activity at 320g/ha against AMARE in % (AMARE [14]; 320 g/ha): 90%
post-emergence activity at 1280g/ha against AMARE in % (AMARE [14]; 1280 g/ha): 100%
post-emergence activity at 1280g/ha against KCHSC in % (KCHSC [15]): 90%
post-emergence activity at 320g/ha against VERPE in % (VERPE [16]; 320 g/ha): 90%
post-emergence activity at 1280g/ha against VERPE in % (VERPE [16]; 1280 g/ha): 100%

COC(=O)CN1CCC2(CC(c3cc(-n4c(=O)cc(C(F)(F)F)n(C)c4=O)c(F)cc3Cl)=NO2)C1=O (racemic) [Compound I-58]
post-emergence activity against ABUTH (ABUTH [17]; 20 g/ha, Table E1b): 90%
post-emergence activity against AMARE (AMARE [18]; 5 g/ha, Table E2a): 80%
post-emergence activity against AMARE (AMARE [18]; 20 g/ha, Table E2b): 100%
post-emergence activity against PHBPU (PHBPU; 5 g/ha, Table E5a): 90%
post-emergence activity against PHBPU (PHBPU; 20 g/ha, Table E5b): 100%
post-emergence activity against POLCO (POLCO): 100%
post-emergence activity against VERPE (VERPE [19]; 20 g/ha, Table E8b): 100%
post-emergence activity against VIOTR (VIOTR; 5 g/ha, Table E9a): 80%
post-emergence activity against VIOTR (VIOTR; 20 g/ha, Table E9b): 100%
post-emergence activity against ZEAMX (ZEAMX; 5 g/ha, Table F1a): 10%
post-emergence activity against ZEAMX (ZEAMX; 20 g/ha, Table F1b): 20%
post-emergence activity against TRZAS (TRZAS; 5 g/ha, Table F2a): 10%
post-emergence activity against TRZAS (TRZAS; 20 g/ha, Table F2b): 20%
post-emergence activity against BRSNW (BRSNW): 0%

Cn1c(C(F)(F)F)cc(=O)n(-c2cc(C3=NOC4(CCN(Cc5ccccc5F)C4=O)C3)c(Cl)cc2F)c1=O (racemic) [Compound I-28]
post-emergence activity against ABUTH (ABUTH [17]; 5 g/ha, Table E1a): 80%
post-emergence activity against ABUTH (ABUTH [17]; 20 g/ha, Table E1b): 100%
post-emergence activity against AMARE (AMARE [18]; 5 g/ha, Table E2a): 100%
post-emergence activity against AMARE (AMARE [18]; 20 g/ha, Table E2b): 100%
post-emergence activity against ECHCG (ECHCG [20]): 100%
post-emergence activity against MATIN (MATIN [21]): 100%
post-emergence activity against PHBPU (PHBPU; 5 g/ha, Table E5a): 100%
post-emergence activity against PHBPU (PHBPU; 20 g/ha, Table E5b): 100%
post-emergence activity against SETVI (SETVI [22]; 5 g/ha, Table E7a): 80%
post-emergence activity against SETVI (SETVI [22]; 20 g/ha, Table E7b): 100%
post-emergence activity against VERPE (VERPE [19]; 5 g/ha, Table E8a): 100%
post-emergence activity against VERPE (VERPE [19]; 20 g/ha, Table E8b): 100%
post-emergence activity against VIOTR (VIOTR; 5 g/ha, Table E9a): 100%
post-emergence activity against VIOTR (VIOTR; 20 g/ha, Table E9b): 100%
post-emergence activity against ZEAMX (ZEAMX; 5 g/ha, Table F1a): 20%
post-emergence activity against ZEAMX (ZEAMX; 20 g/ha, Table F1b): 20%
post-emergence activity against TRZAS (TRZAS; 5 g/ha, Table F2a): 20%
